According to patent US4690935A, “Inhibition of tumor growth and metastasis with calcium channel blocker compounds” (Wayne State University, priority 1983, dated 1987):
Entries after “also recorded” stand apart in the source; their conditions may differ. Like-named read-outs stand apart in the source and are kept apart here.

What was measured:
Platelet [1] = test: ADP induced platelet aggregation; assay type: cell-based, human; conditions: for effect on ADP induced platelet aggregation (in words): higher concentrations
Protocol: (§1) Blood (45 ml) was drawn from the […] vein of healthy, fasted, aspirin free (at least two weeks) human volunteers into a plastic syringe containing 5 ml of 4.8% dextrose with 50 U/ml heparin buffered by 25 mM HEPES, pH 7.5. An 18 gauge needle was used to prevent hemolysis. The heparinized blood was gently mixed by inverting the syringe five times and then the blood was transfused into two 40 ml plastic centrifuge tubes and centrifuged for 10 min at 163×g. The resulting platelet rich plasma (PRP; the supernatant fraction) was decanted using an adjustable SMI pipette set at 6 ml. Platelet poor plasma (PPP) was prepared by centrifugation of PRP for 10 min at 1086×g. Platelet poor plasma was used to standardize the platelet concentration in PRP to 3×10^8 /ml. Platelet concentrations were determined using a Coulter Model ZBI cell counter.
(§2) Platelet aggregation was measured photometrically using a Sienco Model DP-247E dual channel aggregometer and recorded on a Sienco Model B-5000 dual channel recorder. Aliquots of PRP (250 microliters at 3×10^8 platelets/ml) were transferred into aggregometry cuvettes and stirred at a constant speed of 800 RPM at 37° C. Platelet aggregation studies were designed and run as individually controlled samples. BAY e 9736 was dissolved in either PEG-400 or […] (DMSO).
(§3) BAY e 9736 in PEG-400 alone was aliquoted into the cuvettes prior to the addition of the PRP. Immediately after the addition of the PRP, the cuvettes were placed into the aggregometer. After two minutes (to allow for the stabilization of the platelet preparation and mixing of the BAY e 9736), ADP or tumor cells were added in 20 microliter aliquots to induce platelet aggregation.
Adenosine diphosphate (ADP) was prepared as a 1 mM solution (in distilled water). A 25 microliter aliquot was added to control and BAY e 9736 treated cuvettes containing PRP. The ADP concentration used induces rapid, monophasic platelet aggregation.

[2] = tested on: Walker 256 L-Pam tumor cell; test: Walker 256 L-Pam tumor cell attachment to plastic; assay type: cell-based, rat; conditions: 0.04 mg/ml; for effect on tumor cell adhesion to plastic wells (in words): thirty minutes preincubation; for inhibition at 40 µg/mL: Rattus norvegicus, Walker 256, 1 h, 1 h plating, read-out: % Inhibition vs control (attachment to plastic)
Protocol: Walker ^256 L-Pam tumor cells were plated at approximately 5×10^5 cells/flask. The cells were labelled with ^125 I-UDR (iodinated uridine deoxyribonucleic acid) at 0.5 microcuries/ml media (5.0 microcurie/flask). Cells were incubated for approximately 24 hours and the cell count/flask was determined to be 8.14×10^5 cell/flask. The cells from each flask were counted (gamma counter) and found to have an average of 0.24 cpm/cell.
Platelet enhanced tumor cell attachment to plastic was tested using four conditions: tumor cell alone (Condition A), tumor cells plus washed platelets (Condition B), tumor cells plus platelet poor plasma (Condition C) and tumor cells, washed platelets and platelet poor plasma (Condition D).
Walker 256 L-Pam tumor cells obtained from culture are radiolabeled with ^125 I-UDR as described previously. The radiolabeled cells are removed from T-75 flasks with trypsin (2 milliliters of 0.25% trypsin and 0.01% EDTA) in MEM. After two minutes, the flasks are washed 3X with trypsin "quench," 10% fetal calf serum in MEM, to quench and remove the trypsin in order to prevent cell lysis. The tumor cells are removed from the flasks in MEM and adjusted to 2.5×10^5 cells /milliliter. One hundred microliters of the tumor cell suspension (2.5×10^4 cells) were plated in […] tissue culture wells (Costar) and overlaid with 250 microliters of Wash Solution #2 (see Platelet Prep). The cells were incubated at room temperature (approximately 22° C.) for 5 minutes. Following this incubation 10 microliters of 7.35 mg/ml CaCl2 were added to the culture wells, 10 microliters of platelet poor plasma (diluted 1:32 with platelet Wash Solution #2) were added to culture wells for Conditions C and D and 250 microliters of washed platelets (3×10^8 /ml final concentration) were added to culture wells for Conditions B and D. Where appropriate, Wash Solution #2 was added to wells (Conditions A and C) so that all wells had the same final volume of solutions. The wells were incubated for one hour at 37° C. After the one hour incubation, the media containing any unattached tumor cells were removed by aspiration and then the wells were washed 2X with 1 ml of sodium phosphate buffer (PBS). The adhering cells were removed by trypsinization (as described above) and counts per wells determined using a gamma counter. Results were determined as total cpm plated per well.
The effect of BAY e 9736 on Walker 256 L-Pam tumor cell adhesion to plastic wells […] was determined by pretreating monodispersed Walker 256 L-Pam tumor cells with BAY e 9736 dissolved in DMSO prior to plating the cells. Except for the pretreatment, plastic adhesion studies were performed as previously described in the literature. A 8 mg sample of BAY e 9736 was dissolved in 1 ml of DMSO. Five microliters of the 8 mg/ml BAY e 9736 was added to each 1 ml of tumor cells.

Platelet [3] = test: Tumor cell (B16a) induced platelet aggregation (TCIPA); assay type: cell-based, human; conditions: for effect on tumor cell induced platelet aggregation (in words): 400 micrograms/ml to 0.4 micrograms/ml
Protocol: as §1, §2, §3
A 20 milligram sample of BAY e 9736 was dissolved in 1 ml of polyethylene glycol (PEG-400) and serially diluted with PEG-400 to 2, 0.2 and 0.02 mg/ml concentrations using PEG-400. Tumor cell induced platelet aggregation (TCIPA) studies were performed as described previously. The effect of BAY e 9736 on TCIPA was determined by the mixing of 2 or 5 microliter aliquots of 20, 2, 0.2 or 0.02 mg/ml BAY e 9736 and the platelet rich plasma (PRP) for approximately 3 minutes prior to the addition of tumor cells.

In the case of `COCCOC(=O)C1=C(C)NC(C)=C(C(=O)OC(C)C)C1c1cccc([N+](=O)[O-])c1` (stereo not drawn) [BAY e 9736, 1,4-dihydro-2,6-dimethyl-4-(3' nitrophenyl)-pyridine-3-(beta-methyoxyethylester)-5-(isopropyl ester)], the “% Inhibition of ADP Induced Platelet Aggregation” value (Platelet [1]; 0.0015 mg/ml final, 0.1 mM ADP) is reported as “No effect”, the “% Inhibition of ADP Induced Platelet Aggregation” value (Platelet [1]; 0.004 mg/ml final (second line so printed, below 0.0015), 0.1 mM ADP) is reported as “No effect” and the “% Inhibition of ADP Induced Platelet Aggregation” value (Platelet [1]; 0.004 mg/ml final, 0.1 mM ADP) is reported as “No effect”. For the same molecule, the inhibition at 15 µg/mL (Platelet [1]; Homo sapiens, Platelet, 0.015 mg/ml final, 0.1 mM ADP, printed "No effect to 12%") was at most 12%, the inhibition at 40 µg/mL (Platelet [1]; Homo sapiens, Platelet, 0.04 mg/ml final, 0.1 mM ADP, x ± SEM, n = 3) was 31 ± 6.2% and the inhibition at 150 µg/mL (Platelet [1]; Homo sapiens, Platelet, 0.15 mg/ml final, 0.1 mM ADP, x ± SEM, n = 3) was 58 ± 11%. For the same molecule, the inhibition at 400 µg/mL (Platelet [1]; Homo sapiens, Platelet, 0.4 mg/ml final, 0.1 mM ADP, x ± SEM, n = 3) was 69 ± 7.5%, the “effect on ADP induced platelet aggregation (in words)” value (Platelet [1]) was “able to significantly inhibit this aggregation” and the “effect on ADP induced platelet aggregation (in words)” value (Platelet [1]; listed as nimodipine) was “greatly inhibit platelet aggregation induced by tumor cells and ADP”. For the same molecule, the “effect on tumor cell adhesion to plastic wells (in words)” value [2] was “decreased the percent of cells adhering to the plastic wells; also recorded: significant in all groups tested”, the “effect on tumor cell adhesion to plastic wells (in words)” value ([2]; listed as nimodipine) was “decreases or inhibits the adhesion of tumor cells to plastic incubation wells” and the inhibition at 40 µg/mL ([2]; A = tumor cells alone) was 72%. It also gave an inhibition at 40 µg/mL ([2]; B = tumor cells + platelets) of 50 ± 8.2%, an inhibition at 40 µg/mL ([2]; C = tumor cells + PPP) of 44 ± 9.2% and an inhibition at 40 µg/mL ([2]; D = tumor cells + PPP + platelets) of 40 ± 7.5%. For the same molecule, the “% Inhibition of Tumor Cell Induced Platelet Aggregation” value (Platelet [3]; 0.00015 mg/ml final) was “No effect”, the “% Inhibition of Tumor Cell Induced Platelet Aggregation” value (Platelet [3]; 0.004 mg/ml final (second line so printed, below 0.0015)) was “No effect” and the “effect on tumor cell induced platelet aggregation (in words)” value (Platelet [3]) was “does inhibit TCIPA”. The “effect on tumor cell induced platelet aggregation (in words)” value (Platelet [3]; listed as nimodipine) was “greatly inhibit platelet aggregation induced by tumor cells”, the inhibition at 1.5 µg/mL (Platelet [3]; Homo sapiens, Platelet, 0.0015 mg/ml final, x ± SEM, n = 3) was 12 ± 4.1% and the inhibition at 4 µg/mL (Platelet [3]; Homo sapiens, Platelet, 0.004 mg/ml final, x ± SEM, n = 3) was 19 ± 5.9%. It also gave an inhibition at 15 µg/mL (Platelet [3]; Homo sapiens, Platelet, 0.015 mg/ml final, x ± SEM, n = 3) of 32 ± 3.5%, an inhibition at 40 µg/mL (Platelet [3]; Homo sapiens, Platelet, 0.04 mg/ml final, x ± SEM, n = 3) of 55 ± 7.7% and an inhibition at 150 µg/mL (Platelet [3]; Homo sapiens, Platelet, 0.15 mg/ml final, x ± SEM, n = 3) of 67 ± 8.5%. The inhibition at 400 µg/mL (Platelet [3]; Homo sapiens, Platelet, 0.4 mg/ml final, x ± SEM, n = 3) was 85 ± 9.6% and the “effect on platelet aggregation, dissolved in PEG-400 vs DMSO” value (Platelet [3]; preliminary aggregometry studies) was “no statistically significant differences”.
